Assay results reported in patent US20220354949A1, “NOVEL COMPOUNDS” (XENIOPRO GmbH, priority 2018, published 2022).

What was measured:
Type in all cases: cell-based
[1] = system: TT cells (human medullary thyroid carcinoma cells); test: Proliferation assay (alamarBlue) with TT cells; settings: compound at 20 μM
Excerpt: (§1) The antiproliferative activities of compounds falling under formula (Ia), (Ib) and (Ic), respectively, were investigated on cells or cell lines originating from a disorder of the haematopoietic system, including the myeloid cell compartment and the lymphoid cell compartment (T-cells and B-cells), the neuroendocrine system, the cervix, the breast, the ovaries, the lung, the gastrointestinal tract, and the mucosal epithelium, as well as from the skin epithelium and from the muscle. To this end, HL-60 cells, NB-4 cells, HH cells, RPMI-8402 cells, TANOUE cells, TT cells, HeLa cells, MDA-MB-231 cells, FU-OV-1 cells, LOU-NH91 cells, 23132/87 cells, CAL-27 cells, BHY cells, SCC-25 cells, A-431 cells, human primary epidermal keratinocytes (HPEK), and C2C12 cells were seeded into 96-well plates suitable for fluorescence assays (CORNING #3598) at following initial cell numbers: 1000 cells per well for HL-60; 1000 cells per well for NB-4; 5000 cells per well for HH; 5000 cells per well for RPMI-8402; 1500 cells per well for TANOUE; 9000 cells per well for TT; 2000 cells per well for HeLa; 3000 cells per well for MDA-MB-231; 3000 cells per well for FU-OV-1; 4000 cells per well for LOU-NH91; 2000 cells per well for 23132/87; 2000 cells per well for CAL-27; 1500 cells per well for BHY; 1500 cells per well for SCC-25; 700 cells per well for A-431; 1000 cells per well for HPEK; 500 cells per well for C2C12. The cells were treated with compounds at indicated final concentrations (diluted from the 1000× stock-solutions in DMSO to a final DMSO concentration of 0.1% v/v in H2O (Water For Injection, WFI, Fisherscientific #10378939)) or with the empty carrier DMSO at 0.1% v/v as control for 5 days. At day 5 after starting the treatments the cells were subjected to the alamarBlue® Proliferation Assay (Bio-Rad Serotec GmbH, BUF012B) according to the protocol of the manufacturer. The readout was taken with a multi-well plate-reader in the fluorescence mode with applying a filter for excitation at 560 nm (band width 10 nm) and for emission at 590 nm (band width 10 nm). Control treatments for growth inhibition with commercial compounds such as Methotrexate (MTREX) and Resveratrol (RES) were included on every plate. Some of the test compounds of the present invention were obtained and applied as their salts. According cases are indicated in the column “Specification” in Table 55 to Table 92 and by their sum formula in Table 93.
(§2) The assays were performed in duplicate or more replicates of independent single experiments each containing a six-fold replicate for every condition. For every individual plate, the measured fluorescence intensity values of the conditions with compound treatment were normalized against the corresponding equally weighted arithmetic mean of the fluorescence intensity values of the six DMSO treated control wells in order to obtain the relative values to a baseline level of 1.0.
(§3) Two independent outlier analyses were performed according to the methods by Peirce and Chauvenet (Ross, Journal of Engineering Technology 2003, 1-12). Outliers confirmed by at least one of the methods were excluded from the calculations but not more than one value out of six per compound within a single experiment. The weighted arithmetic mean (here abbreviated as AVEw) for each compound was calculated from the normalized values over all independent replicates of the single experiments comprising the six replicates each. The corresponding standard deviation for the weighted arithmetic mean was calculated according to the method described by Bronstein et al. (Bronstein, Semendjajew, Musiol, Müihlig, Taschenbuch der Mathematik, 5th edition 2001 (German), publisher: Verlag Harri Deutsch, Frankfurt am Main and Thun) and was combined with the Gauß' error propagation associated with the performed calculation for the normalization. The resulting standard deviation is herein referred to as “combined standard deviation”. […]

[2] = system: SCC-25 cells (human tongue squamous cell carcinoma cells); test: Proliferation assay (alamarBlue) with SCC-25 cells; settings: 20 μM
Excerpt: as §1, §2, §3

[3] = system: HL-60 cells (human acute myeloid leukemia cells); test: Proliferation assay (alamarBlue) with HL-60 cells; settings: 20 μM
Excerpt: as §1, §2, §3

[4] = system: FU-OV-1 cells (human ovarian carcinoma cells); test: Proliferation assay (alamarBlue) with FU-OV-1 cells; settings: compound at 20 μM
Excerpt: as §1, §2, §3

[5] = system: RPMI-8402 cells (human T cell acute lymphoblastic leukemia cells); test: Proliferation assay (alamarBlue) with RPMI-8402 cells; settings: 20 μM
Excerpt: as §1, §2, §3

[6] = system: NB-4 cells (human acute promyelocytic leukemia cells); test: Proliferation assay (alamarBlue) with NB-4 cells; settings: 20 μM
Excerpt: as §1, §2, §3

[7] = system: 23132/87 cells (human gastric adenocarcinoma cells); test: Proliferation assay (alamarBlue) with 23132/87 cells; settings: 20 μM
Excerpt: as §1, §2, §3

[8] = system: LOU-NH91 cells (human lung squamous cell carcinoma cells); test: Proliferation assay (alamarBlue) with LOU-NH91 cells; settings: 20 μM
Excerpt: as §1, §2, §3

[9] = system: TANOUE cells (human B cell leukemia cells); test: Proliferation assay (alamarBlue) with TANOUE cells; settings: compound at 20 μM
Excerpt: as §1, §2, §3

[10] = system: HH cells (human cutaneous T-cell lymphoma cells); test: Proliferation assay (alamarBlue) with HH cells; settings: 20 μM
Excerpt: as §1, §2, §3

[11] = system: A-431 cells (human epidermoid squamous cell carcinoma cells); test: Proliferation assay (alamarBlue) with A-431 cells; settings: 20 μM
Excerpt: as §1, §2, §3

[12] = system: HeLa cells (human cervical adenocarcinoma cells); test: Proliferation assay (alamarBlue) with HeLa cells; settings: compound at 20 μM
Excerpt: as §1, §2, §3

## CN(Cc1cnc2nc(N)nc(N)c2n1)c1ccc(C(=O)N[C@@H](CCC(=O)O)C(=O)O)cc1 [MTREX, Methotrexate]
[1]; Table 65 (novel compounds)
  Activity Range: weighted arithmetic mean (AVEw) of normalized fluorescence intensity relative to DMSO basis level 1.0: 1.0 ± 0.0
[1]; Table 66 (compounds of PCT/EP2018/054686)
  Activity Range: weighted arithmetic mean (AVEw) of normalized fluorescence intensity relative to DMSO basis level 1.0: 1 ± 0.0
[2]; Table 82 (novel compounds)
  Activity Range (weighted arithmetic mean AVEw of normalized fluorescence intensity, relative to DMSO basis level 1.0): 0.5 ± 0.1
[2]; Table 83 (compounds disclosed in PCT/EP2018/054686)
  Activity Range (weighted arithmetic mean AVEw of normalized fluorescence intensity, relative to DMSO basis level 1.0): 0.5 ± 0.1
[3]; relative to DMSO basis level 1.0, Table 55 (novel compounds)
  Activity Range: weighted arithmetic mean (AVEw) of normalized fluorescence intensity, proliferation assay with HL-60 cells: 0.1 ± 0.1
[3]; relative to DMSO basis level 1.0, Table 56 (compounds disclosed in PCT/EP2018/054686)
  Activity Range: weighted arithmetic mean (AVEw) of normalized fluorescence intensity, proliferation assay with HL-60 cells: 0.1 ± 0.1
[4]; Table 71 (novel compounds)
  Activity Range: weighted arithmetic mean (AVEw) of normalized fluorescence intensity relative to DMSO basis level 1.0: 1.0 ± 0.0
[4]; Table 72 (compounds of PCT/EP2018/054686)
  Activity Range: weighted arithmetic mean (AVEw) of normalized fluorescence intensity relative to DMSO basis level 1.0: 1.0 ± 0.0
[5]; relative to DMSO basis level 1.0, Table 61 (novel compounds)
  Activity Range: weighted arithmetic mean (AVEw) of normalized fluorescence intensity, proliferation assay with RPMI-8402 cells: 0.1 ± 0.0
[5]; relative to DMSO basis level 1.0, Table 62 (compounds disclosed in PCT/EP2018/054686)
  Activity Range: weighted arithmetic mean (AVEw) of normalized fluorescence intensity, proliferation assay with RPMI-8402 cells: 0.1 ± 0.0
[6]; relative to DMSO basis level 1.0, Table 57 (novel compounds)
  Activity Range: weighted arithmetic mean (AVEw) of normalized fluorescence intensity, proliferation assay with NB-4 cells: 0.1 ± 0.0
[6]; relative to DMSO basis level 1.0, Table 58 (compounds disclosed in PCT/EP2018/054686)
  Activity Range: weighted arithmetic mean (AVEw) of normalized fluorescence intensity, proliferation assay with NB-4 cells: 0.1 ± 0.0
[7]; Table 75 (novel compounds)
  Activity Range (weighted arithmetic mean AVEw of normalized fluorescence intensity, relative to DMSO basis level 1.0): 0.3 ± 0.0
[7]; Table 76 (compounds disclosed in PCT/EP2018/054686)
  Activity Range (weighted arithmetic mean AVEw of normalized fluorescence intensity, relative to DMSO basis level 1.0): 0.3 ± 0.0
[8]; Table 73 (novel compounds)
  Activity Range (weighted arithmetic mean AVEw of normalized fluorescence intensity, relative to DMSO basis level 1.0): 0.5 ± 0.1
[8]; Table 74 (compounds disclosed in PCT/EP2018/054686)
  Activity Range (weighted arithmetic mean AVEw of normalized fluorescence intensity, relative to DMSO basis level 1.0): 0.5 ± 0.1
[9]; Homo sapiens, B-cell, Table 63 (novel compounds), read-out: Activity Range: weighted arithmetic mean (AVEw) of normalized fluorescence intensity relative to DMSO basis level 1.0
  activity at 20 µM: 10%
[9]; Table 64 (compounds of PCT/EP2018/054686)
  Activity Range: weighted arithmetic mean (AVEw) of normalized fluorescence intensity relative to DMSO basis level 1.0: 0.1 ± 0.0
[10]; relative to DMSO basis level 1.0, Table 59 (novel compounds)
  Activity Range: weighted arithmetic mean (AVEw) of normalized fluorescence intensity, proliferation assay with HH cells: 0.4 ± 0.1
[10]; relative to DMSO basis level 1.0, Table 60 (compounds disclosed in PCT/EP2018/054686)
  Activity Range: weighted arithmetic mean (AVEw) of normalized fluorescence intensity, proliferation assay with HH cells: 0.4 ± 0.1
[11]; Table 84 (novel compounds)
  Activity Range (weighted arithmetic mean AVEw of normalized fluorescence intensity, relative to DMSO basis level 1.0): 0.2 ± 0.1
[11]; Table 85 (compounds disclosed in PCT/EP2018/054686)
  Activity Range (weighted arithmetic mean AVEw of normalized fluorescence intensity, relative to DMSO basis level 1.0): 0.2 ± 0.1
[12]; Table 67 (novel compounds)
  Activity Range: weighted arithmetic mean (AVEw) of normalized fluorescence intensity relative to DMSO basis level 1.0: 0.4 ± 0.0
[12]; Table 68 (compounds of PCT/EP2018/054686)
  Activity Range: weighted arithmetic mean (AVEw) of normalized fluorescence intensity relative to DMSO basis level 1.0: 0.4 ± 0.0
